Assays:
[1] = Shake-flask n-octanol/water logDpH7.4 with HPLC-UV; assay type: physicochemical; details: octanol / 0.01 M phosphate buffer pH 7.4, 25 °C
Protocol: LogDpH7.4 values of the three APIs were determined at Pion Inc (UK) Ltd. (Forest Row, UK) using a shake-flask screening method and high performance liquid chromatography with UV detection (HPLC-UV). Samples containing the API were equilibrated between octanol-saturated 0.01 M phosphate buffer at pH 7.4 and buffer-saturated octanol and analyzed by HPLC-UV. The experimental details are provided in Supplementary Materials. Measured logDpH7.4 values are presented as means (±SD) and were compared to literature values as well as in silico predictions using the software ADMET Predictor version 9 and ACD/Labs Release 2021.1.2. […]
version 9 (Simulations Plus Inc., Lancaster, CA, USA) and ACD/ Labs Release 2021.1.2 (Advanced Chemistry Devel opment Inc., Toronto, Canada) with the molecular structure as input.
S.2.3. n‐Octanol/Water Distribution Coefficient (logDpH7.4) […]
screening method and HPLC analysis. Samples (n = 3) were prepared by addition of a 10 mM API stock solution in DMSO to an oct anol saturated 0.01 M phosphate buffer at pH 7.4 to prepare a 1:10 dilution (ionic strength adjusted with 0.15 M NaCl). Buffer saturated octanol was added (1:1) to prepare pa rtiti on systems, which were agitated on an electronic shake pla te for 4 h at 25 ± 2°C. All samples were centrifuged, and aqueous and octanol layers were separately transferred to 96 well plat es. Both layers of each replicate were analyzed with a standard HPLC gradient method (Table S3). A Waters Acquity H‐Class Plus System consisting of a sample manager, a quaternary solvent manager and a photodiode array (PDA) detector was used. All HPLC data was collected and processed using the software Empower® version 3.0. Measured logDpH7.4 values are presented as means with standard deviation and were compared to literature va lu es and predictions using the software ADMET Predictor version 9 and ACD/Labs Release 2021.1.2 wit h the molecular structure as input.
Table S3. Standard HP LC method for the determination of logDpH7.4 values.
System Waters Acquity H‐Class Plus System […]

[2] = cited from earlier work
[3] = Caco-2 permeability assay (pH 6.5/7.4 gradient, ± elacridar); details: human; for recovery at 120 min, 10 µM: Caco-2
Protocol: (§1) In vitro permeability studies were performed at Cyprotex Discovery Ltd. (Macclesfield, UK) using a high-throughput Caco-2 permeability assay. Permeability at 37 °C was assessed from the apical to basolateral side (A⟹B) and in opposite direction (B⟹A) applying a pH gradient with pH 6.5 in the apical and pH 7.4 in the basolateral compartment (Hanks Balanced Salt Solution, HBSS). After an incubation of 120 min, samples were diluted for analysis via liquid chromatography coupled with tandem mass spectrometry (LC-MS/MS). […] Experiments were performed in absence and presence of the P-glycoprotein (P-gp) inhibitor elacridar (10 µM) to study transporter-mediated efflux effects. The dosing solutions contained the API (10 µM) in HBSS, and DMSO in a concentration of ≤1% v/v. Lucifer yellow (100 µM) was included as fluorescent integrity marker. Further experimental details are provided in Supplementary Materials.
(§2) The apparent permeability coefficients (Papp) were calculated according to Equation (27):(27) Papp=dQ/dt/C0·A where dQ/dt is the permeation rate of the API across the cell monolayer, C0 is the starting concentration of the API in the dosing solution and A is the surface area of the cell monolayer. The efflux ratios (ERs) were calculated from the B⟹A and A⟹B Papp values to estimate whether P-gp mediated efflux was involved in the transport of the APIs. The mass balance (% recovery) was calculated from the sum of the API recovered from the acceptor and donor compartments at the end of the experiment, divided by the initial donor amount.
(§3) Table S6. Gradient of the UPLC method for analysis of lemborexant.
(§4) Table S7. Gradient of the UPLC method for analysis of istradefylline.
(§5) S.2.5. rDCS Standard Investigations: Caco‐2 permeability studies
(§6) Caco‐2 cells were obtained from the American Type Culture Collection (ATCC, Manassas, VA, USA) and used between passage numbers 40 to 60. The cells were seeded onto Millipore Multiscreen Transwell plates at a density of 1 x 10^5 cells/cm2 and cultured in Dulbeccoʹs Modified Eagleʹs Medium (DMEM). The medium was changed every two or three days. Ce l l culture was carried out at 37 °C in an atmosphere of 5 % CO2 with a relative humidity of 95 %. The permeability assay was performed on day 20.
(§7) In vitro permeability was assessed wit h a high‐throughput Caco‐2 permeability assay. The assay was prepared by rinsing apical and basolateral monolayer surfaces twice with Hanks Balanced Salt Solution (HBSS) at the desired pH and 37 °C. Subsequently, cells in the apical and basolateral compartments were incubated with HBSS at the desired pH for 40 min. A pH gradient with pH 6.5 in the apical compartment and pH 7.4 in the basolateral compartment was applied. Dosing solutions containing the API (10 μ M) were prepared by diluting a concentrated API solution in DMS O with HBSS. The final DMSO concentration was ≤ 1% v/v. Lucifer yellow (100 μM) was included in the dosing solution as fluorescent integrity marker. For the assessment of the permeability from the apical to basolateral side (A⟹B), HBSS in the apical compartment was replaced with the dosing solution. The apical inserts were placed into a companion plat e containing fresh buffer with 1% v/ v DMSO. For the assessment of the permeability from the basolateral to […]
(§8) apical side (B⟹A), HBSS was removed from the companion plate and replaced with the solution of drug in HBSS. Fresh HBSS was added to the apical insert, which was then placed into the companion plate.
(§9) Experiments were performed in absence and presence of the P‐glycoprotein (P‐gp) inhibitor elacridar (10 μM) to study transporter‐mediated efflux effects. In those experiments, elacridar was included in both compartments during the equilibration time and assay. The starting concentration (C0) was confirmed by sampling from the dosing solution immediately before dosing into the cell pl ates. After incubation of 120 minutes, the apical inserts and companion plates were separated for sampling from both compartments.

[4] = system: P-gp; experiment: as above; details: human, Caco-2, with P-gp inhibitor elacridar 10 µM
Protocol: as §1, §2, §3, §4, §5, §6, §7, §8, §9

[5] = healthy male subjects, oral suspension 40 mg [14C]istradefylline
[6] = Caco-2, Papp(A⟹B), Caco-2, 10 µM, apical pH 6.5 / basolateral pH 7.4, 120 min, without inhibitor
[7] = Caco-2, Papp(B⟹A), Caco-2, without inhibitor
[8] = Caco-2, with elacridar 10 µM, Papp(A⟹B) + inhibitor
[9] = Caco-2, with elacridar 10 µM, Papp(B⟹A) + inhibitor
[10] = human mass-balance study, 10 mg [14C]lemborexant

Row | SMILES | logD at 4 h [1] | administered radioactivity recovered in feces [2, 5] [%] | administered radioactivity recovered in urine [2, 5] [%] | recovery at 120 min, 10 µM [3] [%] | Papp at 120 min, 10 µM [3, 6] [×10⁻⁶ cm/s] | Papp at 120 min, 10 µM [3, 7] [×10⁻⁶ cm/s] | Papp at 120 min, 10 µM [4, 8] [×10⁻⁶ cm/s] | Papp at 120 min, 10 µM [4, 9] [×10⁻⁶ cm/s] | median tmax ([2]; healthy adults, single oral doses 1 to 10 mg) | dose recovered unchanged in feces [2, 10] | fraction of oral dose absorbed (Fa) [2, 10] [%] | exposure versus dose ([2]; range 1 to 10 mg) | Papp at 120 min, 10 µM ([4]; Caco-2, Papp(A⟹B) + inhibitor) [×10⁻⁶ cm/s] | Papp at 120 min, 10 µM ([4]; Caco-2, Papp(B⟹A) + inhibitor) [×10⁻⁶ cm/s] | oral bioavailability ([2]; healthy volunteers, 200 mg or 400 mg oral) [%] | exposure (AUC and Cmax) versus dose ([2]; high single oral doses of 800, 1200 and 1600 mg)
1 | CCn1c(=O)c2c(nc(/C=C/c3ccc(OC)c(OC)c3)n2C)n(CC)c1=O [Istradefylline, istradefylline] | 2.96 ± 0.03 | 48.0 ± 13.4 | 38.9 ± 10.7 | > 85 | 30.2 ± 1.2 | 28.3 ± 16 | 31.2 ± 1.1 | 43.7 ± 18.5 | – | – | – | – | – | – | – | –
2 | Cc1ncc(OC[C@@]2(c3cccc(F)c3)C[C@H]2C(=O)Nc2ccc(F)cn2)c(C)n1 [Lemborexant, lemborexant] | 3.04 ± 0.05 | – | – | > 74 | 26.7 ± 1.2 | 41.8 ± 1.2 | – | – | approximately 1 h | about 13% | 87 | increase in a dose-proportional manner | 24.2 ± 0.7 | 39 ± 0.4 | – | –
3 | C[C@@H](c1ncncc1F)[C@](O)(Cn1cncn1)c1ccc(F)cc1F [Voriconazole, voriconazole] | 1.66 ± 0.03 | – | – | > 87 | 27.3 ± 1.7 | 43.5 ± 0.9 | 24 ± 1 | 40.4 ± 1.1 | – | – | – | – | – | – | ≥ 85 | increased proportionally with dose
